Test results published in patent US7803801B2, “Aminopyridine compounds having Syk inhibitory activity” (Japan Tobacco, Inc., priority 2005, dated 2010).
Where a name gives a salt, the structure may show the parent alone.

Key:
[1] = molecular target: GST-Syk Full Protein (human) (Homo sapiens, UniProt P43405); assay: Syk kinase inhibition test (HTRF method); type: biochemical; conditions: Tables 1-x, compounds A; read-out: sykHTRF ave IC50
Summary of the method: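 Human GST-Syk full-length (6.4 nM) phosphorylated biotin-EDPDYEWPSA-NH2 (250 nM) with 100 μM ATP in HEPES pH 7.0/MgCl2 buffer, 2% DMSO, 30 min at room temperature. EDTA stop, then HTRF detection (streptavidin-XL665, Eu anti-phosphotyrosine) after 1 h; 665/620 ratio read.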

[2] = tested on: cultured human mast cells; assay: Degranulation inhibition test using cultured human mast cells (IgE cross-linking, β-Hexosaminidase release); type: cell-based; conditions: Mast cell; Tables 1-x, compounds A; cultured human mast cells; read-out: human degranulation ave. IC50
Summary of the method: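 CD34+ cord-blood cells cultured ≥8 weeks with SCF/IL-6/IL-3; FcεRI primed 5 days with rhIL-4 (1 ng/mL) and hIgE (0.5 μg/mL). Compound (0.1% DMSO) preincubated 10 min at 37 °C, then anti-IgE (final 10 μg/mL) 30 min; released β-hexosaminidase read at 405 nm versus total lysate, IC50 (M).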

Row | SMILES | IC50 [1] [nM] | IC50 [2] [nM]
1 | Cc1ccnc(Nc2cccc(-c3cnc(N4CCC[C@H]4C(=O)NCC(F)(F)F)s3)n2)c1 [Compound A-530, N-(2,2,2-trifluoroethyl)-(S)-1-{5-[6-(4-methylpyridin-2-ylamino)pyridin-2-yl]thiazol-2-yl}pyrrolidine-2-carboxamide] | < 100 | 100 to 1000
2 | Cc1ccnc(Nc2cccc(-c3cnc(N4CCC[C@@H](C(=O)O)C4)s3)n2)c1 [Compound A-531, (R)-1-{5-[6-(4-methylpyridin-2-ylamino)pyridin-2-yl]thiazol-2-yl}piperidine-3-carboxylic acid] | < 100 | 100 to 1000
3 | Cc1ccnc(Nc2cccc(-c3cnc(N4CCC[C@@H](CO)C4)s3)n2)c1 [Compound A-532, ((R)-1-{5-[6-(4-methylpyridin-2-ylamino)pyridin-2-yl]thiazol-2-yl}piperidin-3-yl)methanol] | < 100 | < 100
4 | Cc1ccnc(Nc2cccc(-c3cnc(N4CCC[C@@H](C(N)=O)C4)s3)n2)c1 [Compound A-533, (R)-1-{5-[6-(4-methylpyridin-2-ylamino)pyridin-2-yl]thiazol-2-yl}piperidine-3-carboxamide] | < 100 | 100 to 1000
5 | CCN(c1ncc(-c2cccc(Nc3cc(C)ccn3)n2)s1)C1CCN(C(C)=O)CC1 [Compound A-534, 1-[4-(N-ethyl-N-{5-[6-(4-methylpyridin-2-ylamino)pyridin-2-yl]thiazol-2-yl}amino)piperidin-1-yl]ethanone] | < 100 | 100 to 1000
6 | CC(=O)N1CCC(N(CC(F)(F)F)c2ncc(-c3cccc(Nc4cc(C)ccn4)n3)s2)CC1 [Compound A-535, 1-{4-[N-{5-[6-(4-methylpyridin-2-ylamino)pyridin-2-yl]thiazol-2-yl}-N-(2,2,2-trifluoroethyl)amino]piperidin-1-yl}ethanone] | < 100 | > 1000
7 | CC(=O)N1CCC(N(C)c2ncc(-c3cccc(Nc4cc(Cl)ccn4)n3)s2)CC1 [Compound A-536, 1-[4-(N-{5-[6-(4-chloropyridin-2-ylamino)pyridin-2-yl]thiazol-2-yl}-N-methylamino)piperidin-1-yl]ethanone] | < 100 | 100 to 1000
8 | CN(c1ncc(-c2cccc(Nc3cc(Cl)ccn3)n2)s1)C1CCN(C(=O)CO)CC1 [Compound A-537, 1-[4-(N-{5-[6-(4-chloropyridin-2-ylamino)pyridin-2-yl]thiazol-2-yl}-N-methylamino)piperidin-1-yl]-2-hydroxyethanone] | < 100 | 100 to 1000
9 | COc1ccnc(Nc2cccc(-c3cnc(N4CC[C@@H](O)C4)s3)n2)c1 [Compound A-538, (R)-1-{5-[6-(4-methoxypyridin-2-ylamino)pyridin-2-yl]thiazol-2-yl}pyrrolidin-3-ol] | < 100 | 100 to 1000
10 | O[C@@H]1CCN(c2ncc(-c3cccc(Nc4cc(Cl)ccn4)n3)s2)C1 [Compound A-539, (R)-1-{5-[6-(4-chloropyridin-2-ylamino)pyridin-2-yl]thiazol-2-yl}pyrrolidin-3-ol] | < 100 | < 100
11 | Cc1ccnc(Nc2cccc(-c3cnc(N4CCC(C)(C(=O)O)CC4)s3)n2)c1 [Compound A-540, 4-methyl-1-{5-[6-(4-methylpyridin-2-ylamino)pyridin-2-yl]thiazol-2-yl}piperidine-4-carboxylic acid] | < 100 | 100 to 1000
12 | COc1ccnc(Nc2cccc(-c3cnc(N4CCC[C@H]4C(N)=O)s3)n2)c1 [Compound A-541, (S)-1-{5-[6-(4-methoxypyridin-2-ylamino)pyridin-2-yl]thiazol-2-yl}pyrrolidine-2-carboxamide] | < 100 | 100 to 1000
13 | NC(=O)[C@@H]1CCCN1c1ncc(-c2cccc(Nc3cc(Cl)ccn3)n2)s1 [Compound A-542, (S)-1-{5-[6-(4-chloropyridin-2-ylamino)pyridin-2-yl]thiazol-2-yl}pyrrolidine-2-carboxamide] | < 100 | < 100
14 | CC(=O)c1ccnc(Nc2cccc(-c3cnc(N4CCC(C(N)=O)CC4)s3)n2)c1 [Compound A-543, 1-{5-[6-(4-acetylpyridin-2-ylamino)pyridin-2-yl]thiazol-2-yl}piperidine-4-carboxamide] | < 100 | 100 to 1000
15 | Cc1ccnc(Nc2cccc(-c3cnc(N(CCO)CCO)s3)n2)c1 [Compound A-544, 2-(N-(2-hydroxyethyl)-N-{5-[6-(4-methylpyridin-2-ylamino)pyridin-2-yl]thiazol-2-yl}amino)ethanol] | < 100 | < 100
16 | OCCN(CCO)c1ncc(-c2cccc(Nc3cc(Cl)ccn3)n2)s1 [Compound A-545, 2-[N-{5-[6-(4-chloropyridin-2-ylamino)pyridin-2-yl]thiazol-2-yl}-N-(2-hydroxyethyl)amino]ethanol] | < 100 | < 100
17 | O=C(O)[C@@H]1CCCN(c2ncc(-c3cccc(Nc4cc(Cl)ccn4)n3)s2)C1 [Compound A-546, (R)-1-{5-[6-(4-chloropyridin-2-ylamino)pyridin-2-yl]thiazol-2-yl}piperidine-3-carboxylic acid] | < 100 | 100 to 1000
18 | CC(O)c1ccnc(Nc2cccc(-c3cnc(N4CCC(C(N)=O)CC4)s3)n2)c1 (centres unmarked) [Compound A-547, 1-(5-{6-[4-(1-hydroxyethyl)pyridin-2-ylamino]pyridin-2-yl}thiazol-2-yl)piperidine-4-carboxamide] | < 100 | > 1000
19 | CC1(c2ccnc(Nc3cccc(-c4cnc(N5CC[C@@H](O)C5)s4)n3)c2)OCCO1 [Compound A-548, (R)-1-(5-{6-[4-(2-methyl-[1,3]dioxolan-2-yl)pyridin-2-ylamino]pyridin-2-yl}thiazol-2-yl)pyrrolidin-3-ol] | < 100 | 100 to 1000

Second part, the compound after the results:

Row | IC50 [1] [nM] | IC50 [2] [nM] | SMILES
20 | < 100 | 100 to 1000 | CC(=O)c1ccnc(Nc2cccc(-c3cnc(N4CC[C@@H](O)C4)s3)n2)c1 [Compound A-549, 1-(2-{6-[2-((R)-3-hydroxypyrrolidin-1-yl)thiazol-5-yl]pyridin-2-ylamino}pyridin-4-yl)ethanone]
21 | < 100 | > 1000 | Cc1ccnc(Nc2cccc(-c3cnc(N4CCN(C(=O)CCC(=O)O)CC4)s3)n2)c1 [Compound A-551, 4-(4-{5-[6-(4-methylpyridin-2-ylamino)pyridin-2-yl]thiazol-2-yl}piperazin-1-yl)-4-oxobutyric acid]
22 | < 100 | 100 to 1000 | O=C(NO)[C@@H]1CCCN(c2ncc(-c3cccc(Nc4cc(Cl)ccn4)n3)s2)C1 [Compound A-552, N-hydroxy-(R)-1-{5-[6-(4-chloropyridin-2-ylamino)pyridin-2-yl]thiazol-2-yl}piperidine-3-carboxamide]
23 | < 100 | > 1000 | Cc1ccnc(Nc2cccc(-c3cnc(N(C)C4CCN(C(=O)CCC(=O)O)CC4)s3)n2)c1 [Compound A-553, 4-[4-(N-methyl-N-{5-[6-(4-methylpyridin-2-ylamino)pyridin-2-yl]thiazol-2-yl}amino)piperidin-1-yl]-4-oxobutyric acid]
24 | < 100 | 100 to 1000 | CC(O)c1ccnc(Nc2cccc(-c3cnc(N4CC[C@@H](O)C4)s3)n2)c1 (stereo partly drawn) [Compound A-554, (R)-1-(5-{6-[4-(1-hydroxyethyl)pyridin-2-ylamino]pyridin-2-yl}thiazol-2-yl)pyrrolidin-3-ol]
25 | < 100 | < 100 | Cc1ccnc(Nc2cccc(-c3cnc(N(C)CC(N)=O)s3)n2)c1 [Compound A-556, 2-(N-methyl-N-{5-[6-(4-methylpyridin-2-ylamino)pyridin-2-yl]thiazol-2-yl}amino)acetamide]
26 | < 100 | > 1000 | CC1(c2ccnc(Nc3cccc(-c4cnc(N5CCC[C@@H](C(=O)O)C5)s4)n3)c2)OCCO1 [Compound A-558, (R)-1-{5-(6-[4-(2-methyl-[1,3]dioxolan-2-yl)pyridin-2-ylamino]pyridin-2-yl}thiazol-2-yl)piperidine-3-carboxylic acid]
27 | < 100 | 100 to 1000 | CC(=O)c1ccnc(Nc2cccc(-c3cnc(N4CCC[C@@H](C(=O)O)C4)s3)n2)c1 [Compound A-560, (R)-1-{5-[6-(4-acetylpyridin-2-ylamino)pyridin-2-yl]thiazol-2-yl}piperidine-3-carboxylic acid]
28 | < 100 | 100 to 1000 | CC(=O)c1ccnc(Nc2cccc(-c3cnc(N4CCC[C@H]4C(N)=O)s3)n2)c1 [Compound A-561, (S)-1-{5-[6-(4-acetylpyridin-2-ylamino)pyridin-2-yl]thiazol-2-yl}pyrrolidine-2-carboxamide]
29 | < 100 | < 100 | OCC1CCN(c2ncc(-c3cccc(Nc4cc(Cl)ccn4)n3)s2)C1 (centres unmarked) [Compound A-562, (1-{5-[6-(4-chloropyridin-2-ylamino)pyridin-2-yl]thiazol-2-yl}pyrrolidin-3-yl)methanol]
30 | < 100 | 100 to 1000 | CC(=O)N1CC[C@@H](N(C)c2ncc(-c3cccc(Nc4cc(C)ccn4)n3)s2)C1 [Compound A-563, 1-[(R)-3-(N-methyl-N-{5-[6-(4-methylpyridin-2-ylamino)pyridin-2-yl]thiazol-2-yl}amino)pyrrolidin-1-yl]ethanone]
31 | < 100 | > 1000 | CC(=O)c1ccnc(Nc2cccc(-c3cnc(N4CCC[C@H]4C(=O)O)s3)n2)c1 [Compound A-564, (S)-1-{5-[6-(4-acetylpyridin-2-ylamino)pyridin-2-yl]thiazol-2-yl}pyrrolidine-2-carboxylic acid dihydrochloride]
